In patent US20230123334A1, “AMINO LIPID COMPOUND, PREPARATION METHOD THEREFOR, AND APPLICATION THEREOF” (SHENZHEN SHENXIN BIOTECHNOLOGY CO., LTD., priority 2020, published 2023):

These compounds were tested on HEK293 cells (assay: Preliminary screening as DNA vectors, GFP transfection of HEK293 cells). Settings: HEK293 cells; lipid/DOPE liposome with 75 ng plasmid DNA (psin-EGFP-IRES-Puro); number of cells expressing GFP divided by total number of nuclei (Hoechst).
Format: cell-based
Procedure, shortened: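 HEK293 cells in DMEM/10% FBS transfected with 75 ng EGFP plasmid per well complexed with amino lipid/DOPE liposomes in pH 5.6 sodium acetate. Hoechst nuclear stain added 20-24 h post-transfection, then cells cultured another 20-24 h. Confocal imaging gives GFP-positive cells as % of total nuclei.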
`CCCCCCCCCNc1nc(NCCCCCC)nc(NCCN2CCN(C)CC2)n1` [Compound N6N9D5] was tested, and the “Absolute DNA transfection efficiency in HEK293 cells” value (“Absolute DNA transfection efficiency” below) was 0.0%.
`CCCCCCCCCNc1nc(NCCCCCC)nc(NCCCN(C)C)n1` [Compound N6N9D6] was tested, and the “Absolute DNA transfection efficiency” value was 0.0%.
With `CCCCCCCCCNc1nc(NCCCCCC)nc(NCCN(CC)CC)n1` [Compound N6N9D7] the “Absolute DNA transfection efficiency” value was 0.0%.
For `CCCCCCCCCNc1nc(NCCCCCC)nc(NCCCN2CCOCC2)n1` [Compound N6N9D8], the “Absolute DNA transfection efficiency” value was 0.0%.
With `CCCCCCCCCNc1nc(NCCCCCC)nc(NCCCN2CCN(C)CC2)n1` [Compound N6N9D9] the “Absolute DNA transfection efficiency” value was 0.0%.
In the case of `CCCCCCCCCNc1nc(NCCCCCC)nc(NCC2CCN(C)CC2)n1` [Compound N6N9D10], the “Absolute DNA transfection efficiency” value is reported as 0.0%.
With `CCCCCCCCCCCNc1nc(NCCCCCC)nc(NCCN(C)C)n1` [Compound N6N11D1] the “Absolute DNA transfection efficiency” value was 0.0%.
`CCCCCCCCCCCNc1nc(NCCCCCC)nc(NCCN2CCOCC2)n1` [Compound N6N11D2] was tested, and the “Absolute DNA transfection efficiency” value was 0.0%.
For `CCCCCCCCCCCNc1nc(NCCCCCC)nc(NCCN2CCCC2)n1` [Compound N6N11D3], the “Absolute DNA transfection efficiency” value was 0.3%.
For `CCCCCCCCCCCNc1nc(NCCCCCC)nc(NCCN2CCCCC2)n1` [Compound N6N11D4], the “Absolute DNA transfection efficiency” value was 0.0%.
`CCCCCCCCCCCNc1nc(NCCCCCC)nc(NCCN2CCN(C)CC2)n1` [Compound N6N11D5] was tested, and the “Absolute DNA transfection efficiency” value was 0.1%.
For `CCCCCCCCCCCNc1nc(NCCCCCC)nc(NCCCN(C)C)n1` [Compound N6N11D6], the “Absolute DNA transfection efficiency” value was 0.2%.
With `CCCCCCCCCCCNc1nc(NCCCCCC)nc(NCCN(CC)CC)n1` [Compound N6N11D7] the “Absolute DNA transfection efficiency” value was 0.0%.
For `CCCCCCCCCCCNc1nc(NCCCCCC)nc(NCCCN2CCOCC2)n1` [Compound N6N11D8], the “Absolute DNA transfection efficiency” value was 0.0%.
In the case of `CCCCCCCCCCCNc1nc(NN)nc(NCCCN2CCN(C)CC2)n1` [Compound N6N11D9], the “Absolute DNA transfection efficiency” value is reported as 0.0%.
For `CCCCCCCCCCCNc1nc(NCCCCCC)nc(NCC2CCN(C)CC2)n1` [Compound N6N11D10], the “Absolute DNA transfection efficiency” value was 0.0%.
`CCCCCCCCCCCCNc1nc(NCCCCCC)nc(NCCN(C)C)n1` [Compound N6N12D1] was tested, and the “Absolute DNA transfection efficiency” value was 0.0%.
In the case of `CCCCCCCCCCCCNc1nc(NCCCCCC)nc(NCCN2CCOCC2)n1` [Compound N6N12D2], the “Absolute DNA transfection efficiency” value is reported as 0.0%.
For `CCCCCCCCCCCCNc1nc(NCCCCCC)nc(NCCN2CCCC2)n1` [Compound N6N12D3], the “Absolute DNA transfection efficiency” value was 0.2%.

What follows are compounds tested on HEK293 cells (assay: Preliminary screening as mRNA vectors, EGFP mRNA transfection of HEK293 cells). Settings: HEK293 cells, 96-well plates, EGFP mRNA 50 ng per well; percentage of GFP fluorescent cells relative to total number of cells (Hoechst).
Format: cell-based
Procedure, shortened: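 HEK293 cells in DMEM plus 10% FBS transfected in 96-well format with 50 ng EGFP mRNA per well; Lipofectamine2000 served as positive control. Read-out is the percentage of GFP-fluorescent cells among total cells, counted by Hoechst nuclear stain.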
With `CCCCCCCCCNc1nc(NCCCCCC)nc(NCCN2CCN(C)CC2)n1` [Compound N6N9D5] the “Absolute mRNA transfection efficiency in HEK293 cells” value (“Absolute mRNA transfection efficiency” below) was 0.1%.
For `CCCCCCCCCNc1nc(NCCCCCC)nc(NCCCN(C)C)n1` [Compound N6N9D6], the “Absolute mRNA transfection efficiency” value was 0.2%.
`CCCCCCCCCNc1nc(NCCCCCC)nc(NCCN(CC)CC)n1` [Compound N6N9D7] was tested, and the “Absolute mRNA transfection efficiency” value was 0.0%.
With `CCCCCCCCCNc1nc(NCCCCCC)nc(NCCCN2CCOCC2)n1` [Compound N6N9D8] the “Absolute mRNA transfection efficiency” value was 0.0%.
In the case of `CCCCCCCCCNc1nc(NCCCCCC)nc(NCCCN2CCN(C)CC2)n1` [Compound N6N9D9], the “Absolute mRNA transfection efficiency” value is reported as 0.0%.
With `CCCCCCCCCNc1nc(NCCCCCC)nc(NCC2CCN(C)CC2)n1` [Compound N6N9D10] the “Absolute mRNA transfection efficiency” value was 0.3%.
With `CCCCCCCCCCCNc1nc(NCCCCCC)nc(NCCN(C)C)n1` [Compound N6N11D1] the “Absolute mRNA transfection efficiency” value was 0.1%.
`CCCCCCCCCCCNc1nc(NCCCCCC)nc(NCCN2CCOCC2)n1` [Compound N6N11D2] was tested, and the “Absolute mRNA transfection efficiency” value was 0.0%.
`CCCCCCCCCCCNc1nc(NCCCCCC)nc(NCCN2CCCC2)n1` [Compound N6N11D3] was tested, and the “Absolute mRNA transfection efficiency” value was 0.9%.
For `CCCCCCCCCCCNc1nc(NCCCCCC)nc(NCCN2CCCCC2)n1` [Compound N6N11D4], the “Absolute mRNA transfection efficiency” value was 0.0%.
In the case of `CCCCCCCCCCCNc1nc(NCCCCCC)nc(NCCN2CCN(C)CC2)n1` [Compound N6N11D5], the “Absolute mRNA transfection efficiency” value is reported as 0.5%.
`CCCCCCCCCCCNc1nc(NCCCCCC)nc(NCCCN(C)C)n1` [Compound N6N11D6] was tested, and the “Absolute mRNA transfection efficiency” value was 0.0%.
For `CCCCCCCCCCCNc1nc(NCCCCCC)nc(NCCN(CC)CC)n1` [Compound N6N11D7], the “Absolute mRNA transfection efficiency” value was 0.0%.
For `CCCCCCCCCCCNc1nc(NCCCCCC)nc(NCCCN2CCOCC2)n1` [Compound N6N11D8], the “Absolute mRNA transfection efficiency” value was 0.1%.
With `CCCCCCCCCCCNc1nc(NN)nc(NCCCN2CCN(C)CC2)n1` [Compound N6N11D9] the “Absolute mRNA transfection efficiency” value was 0.0%.
In the case of `CCCCCCCCCCCNc1nc(NCCCCCC)nc(NCC2CCN(C)CC2)n1` [Compound N6N11D10], the “Absolute mRNA transfection efficiency” value is reported as 0.0%.
`CCCCCCCCCCCCNc1nc(NCCCCCC)nc(NCCN(C)C)n1` [Compound N6N12D1] was tested, and the “Absolute mRNA transfection efficiency” value was 0.2%.
With `CCCCCCCCCCCCNc1nc(NCCCCCC)nc(NCCN2CCOCC2)n1` [Compound N6N12D2] the “Absolute mRNA transfection efficiency” value was 0.0%.
For `CCCCCCCCCCCCNc1nc(NCCCCCC)nc(NCCN2CCCC2)n1` [Compound N6N12D3], the “Absolute mRNA transfection efficiency” value was 0.5%.
